Laboratory results as given in patent US10759783B2, “Biaryl inhibitors of Bruton'S tyrosine kinase” (BIOGEN MA INC., priority 2013, dated 2020).

How the values were obtained:
[1] = target: BTK (phospho-BTK) in human whole blood (Homo sapiens, UniProt Q06187); assay: In vitro PD assay in human whole blood (pBTK assay)
BTK enzyme = target: T1, BTK enzyme (Homo sapiens, UniProt Q06187); assay: In vitro BTK kinase assay: BTK-POLYGAT-LS assay; type: biochemical; details: ATP 10 μM, read-out: IC50 (10uMATP)
T1 construct: purchased Upstate 14-552
Summary of the method: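 Human BTK activity was measured with final 10 μM ATP and 100 nM polyGAT substrate in pH 7.5 Tris buffer with 10 mM MgCl2, DTT, Triton X-100 and casein.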

T1 sequence (Q06187 whole entry): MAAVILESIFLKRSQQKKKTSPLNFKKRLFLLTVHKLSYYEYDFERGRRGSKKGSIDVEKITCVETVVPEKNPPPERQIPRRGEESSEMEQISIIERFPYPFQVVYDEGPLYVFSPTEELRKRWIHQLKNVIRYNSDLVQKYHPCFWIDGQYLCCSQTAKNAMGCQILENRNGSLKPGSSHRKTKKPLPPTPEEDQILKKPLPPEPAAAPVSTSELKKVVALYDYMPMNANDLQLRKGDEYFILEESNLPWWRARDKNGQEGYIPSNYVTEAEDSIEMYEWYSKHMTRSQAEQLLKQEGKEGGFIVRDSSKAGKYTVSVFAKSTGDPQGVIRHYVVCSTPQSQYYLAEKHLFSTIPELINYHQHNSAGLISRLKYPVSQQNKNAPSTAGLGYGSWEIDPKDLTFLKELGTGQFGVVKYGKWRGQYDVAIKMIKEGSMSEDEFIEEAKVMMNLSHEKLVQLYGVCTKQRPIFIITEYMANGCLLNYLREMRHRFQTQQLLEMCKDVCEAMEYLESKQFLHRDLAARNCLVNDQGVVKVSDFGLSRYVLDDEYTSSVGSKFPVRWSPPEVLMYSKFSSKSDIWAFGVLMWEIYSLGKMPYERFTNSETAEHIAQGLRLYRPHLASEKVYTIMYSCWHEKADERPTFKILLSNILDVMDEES
Sequence of BTK (phospho-BTK) in human whole blood (Q06187 whole entry): as above

IC50 [1] [nM]	IC50 (BTK enzyme) [nM]	Structure (SMILES)
< 500	< 10	COCCc1cc(-c2ccnc(Nc3cnn4c3CCC4)n2)ccc1CNC(=O)N1CC[C@@H](C(C)(C)C)C1 [Example I-325, (3S)-3-tert-butyl-N-[[4-[2-(5,6-dihydro-4H-pyrrolo[1,2-b]pyrazol-3-ylamino)pyrimidin-4-yl]-2-(2-methoxyethyl)phenyl]methyl]pyrrolidine-1-carboxamide]
< 500	< 10	CC(C)OC1CN(C(=O)NC2CCCc3cc(-c4ccnc(Nc5cnn(C6CCN(C)CC6)c5)n4)ccc32)C1 (stereo not drawn) [Example I-326, 3-isopropoxy-N-[6-[2-[[1-(1-methyl-4-piperidyl)pyrazol-4-yl]amino]pyrimidin-4-yl]tetralin-1-yl]azetidine-1-carboxamide]
< 500	< 10	CC(C)(C)C1CCN(C(=O)NC2CCCc3cc(-c4ccnc(Nc5cnn(CCO)c5)n4)ccc32)C1 (stereo not drawn) [Example I-327]
< 500	< 10	CCn1cc(Nc2nccc(-c3ccc4c(c3)CCCCC4NC(=O)N3CCC(C(C)(C)C)C3)n2)cn1 (stereo not drawn) [Example I-328]
< 500	< 10	CC(C)OC1CN(C(=O)NC2CCN(C=O)Cc3cc(-c4ccnc(Nc5cnn(C)c5)n4)ccc32)C1 (stereo not drawn) [Example I-329, N-[2-formyl-8-[2-[(1-methylpyrazol-4-yl)amino]pyrimidin-4-yl]-1,3,4,5-tetrahydro-2-benzazepin-5-yl]-3-isopropoxy-azetidine-1-carboxamide]
< 500	< 10	CC(C)(C)C1CCN(C(=O)NC2CCCCc3cc(-c4ccnc(Nc5cnn(C6CCOCC6)c5)n4)ccc32)C1 (stereo not drawn) [Example I-330, 3-tert-butyl-N-[2-[2-[(1-tetrahydropyran-4-ylpyrazol-4-yl)amino]pyrimidin-4-yl]-6,7,8,9-tetrahydro-5H-benzo[7]annulen-5-yl]pyrrolidine-1-carboxamide]
< 500	< 10	CCOC1CN(C(=O)NC2CCCCc3cc(-c4ccnc(Nc5cnn(C)c5)n4)ccc32)C1 (stereo not drawn) [Example I-331, 3-ethoxy-N-[2-[2-[(1-methylpyrazol-4-yl)amino]pyrimidin-4-yl]-6,7,8,9-tetrahydro-5H-benzo[7]annulen-5-yl]azetidine-1-carboxamide]
< 500	< 10	CC(C)OC1CN(C(=O)NC2CCCCc3cc(-c4ccnc(Nc5cnn([C@@H]6CCOC6)c5)n4)ccc32)C1 (stereo partly drawn) [Example I-333, 3-isopropoxy-N-[2-[2-[[1-[(3R)-tetrahydrofuran-3-yl]pyrazol-4-yl]amino]pyrimidin-4-yl]-6,7,8,9-tetrahydro-5H-benzo[7]annulen-5-yl]azetidine-1-carboxamide]
< 500	< 10	CC(C)OC1CN(C(=O)NC2CCCOc3cc(-c4ccnc(Nc5cnn(C)c5)n4)ccc32)C1 (stereo not drawn) [Example I-335, 3-isopropoxy-N-[8-[2-[(1-methylpyrazol-4-yl)amino]pyrimidin-4-yl]-2,3,4,5-tetrahydro-1-benzoxepin-5-yl]azetidine-1-carboxamide]
< 500	< 10	CC(C)OC1CN(C(=O)NC2CCCCc3cc(-c4ccnc(Nc5cnn(CC(C)(C)O)c5)n4)ccc32)C1 (stereo not drawn) [Example I-336, N-[2-[2-[[1-(2-hydroxy-2-methyl-propyl)pyrazol-4-yl]amino]pyrimidin-4-yl]-6,7,8,9-tetrahydro-5H-benzo[7]annulen-5-yl]-3-isopropoxy-azetidine-1-carboxamide]
< 500	< 10	CC(C)OC1CN(C(=O)NC2CCCCc3cc(-c4ccnc(Nc5cnn([C@H]6CCOC6)c5)n4)ccc32)C1 (stereo partly drawn) [Example I-338, 3-isopropoxy-N-[2-[2-[[1-[(3S)-tetrahydrofuran-3-yl]pyrazol-4-yl]amino]pyrimidin-4-yl]-6,7,8,9-tetrahydro-5H-benzo[7]annulen-5-yl]azetidine-1-carboxamide]
< 500	10 to 99	COC1CN(C(=O)NC2CCCCc3cc(-c4ccnc(Nc5cnn(C)c5)n4)ccc32)C1 (stereo not drawn) [Example I-339, 3-methoxy-N-[2-[2-[(1-methylpyrazol-4-yl)amino]pyrimidin-4-yl]-6,7,8,9-tetrahydro-5H-benzo[7]annulen-5-yl]azetidine-1-carboxamide]
< 500	< 10	CCn1cc(Nc2nccc(-c3ccc4c(c3)CCCCC4NC(=O)N3CCC(C(C)C)C3)n2)cn1 (stereo not drawn) [Example I-341, N-[2-[2-[(1-ethylpyrazol-4-yl)amino]pyrimidin-4-yl]-6,7,8,9-tetrahydro-5H-benzo[7]annulen-5-yl]-3-isopropyl-pyrrolidine-1-carboxamide]
< 500	< 10	CC(C)C1CCN(C(=O)NC2CCCCc3cc(-c4ccnc(Nc5cnn(C6CCOCC6)c5)n4)ccc32)C1 (stereo not drawn) [Example I-342, 3-isopropyl-N-[2-[2-[(1-tetrahydropyran-4-ylpyrazol-4-yl)amino]pyrimidin-4-yl]-6,7,8,9-tetrahydro-5H-benzo[7]annulen-5-yl]pyrrolidine-1-carboxamide]
< 500	< 10	CC(C)C1CCN(C(=O)NC2CCCCc3cc(-c4ccnc(Nc5cnn([C@@H]6CCOC6)c5)n4)ccc32)C1 (stereo partly drawn) [Example I-344, 3-isopropyl-N-[2-[2-[[1-[(3R)-tetrahydrofuran-3-yl]pyrazol-4-yl]amino]pyrimidin-4-yl]-6,7,8,9-tetrahydro-5H-benzo[7]annulen-5-yl]pyrrolidine-1-carboxamide]
< 500	< 10	CC(C)C1CCN(C(=O)NC2CCCCc3cc(-c4ccnc(Nc5cnn([C@H]6CCOC6)c5)n4)ccc32)C1 (stereo partly drawn) [Example I-345, 3-isopropyl-N-[2-[2-[[1-[(3S)-tetrahydrofuran-3-yl]pyrazol-4-yl]amino]pyrimidin-4-yl]-6,7,8,9-tetrahydro-5H-benzo[7]annulen-5-yl]pyrrolidine-1-carboxamide]
< 500	< 10	CC(C)OC1CN(C(=O)NC2CCN(CCO)Cc3cc(-c4ccnc(Nc5cnn(C)c5)n4)ccc32)C1 (stereo not drawn) [Example I-346, N-[2-(2-hydroxyethyl)-8-[2-[(1-methylpyrazol-4-yl)amino]pyrimidin-4-yl]-1,3,4,5-tetrahydro-2-benzazepin-5-yl]-3-isopropoxy-azetidine-1-carboxamide]
< 500	< 10	CC(C)OC1CN(C(=O)NC2CCCCc3cc(-c4ccnc(Nc5cnn(C6CCN(C)CC6F)c5)n4)ccc32)C1 (stereo not drawn) [Example I-348, N-[2-[2-[[1-(3-fluoro-1-methyl-4-piperidyl)pyrazol-4-yl]amino]pyrimidin-4-yl]-6,7,8,9-tetrahydro-5H-benzo[7]annulen-5-yl]-3-isopropoxy-azetidine-1-carboxamide]
< 500	< 10	CC(C)(C)CN1CCN(Cc2ccc(-c3ccnc(Nc4cnn(CCO)c4)n3)cc2C(F)(F)F)C(=O)C1 [Example I-350]
< 500	< 10	COCCn1cc(Nc2nccc(-c3ccc(CNC(=O)N4CC(OC(C)C)C4)c(C(F)(F)F)c3)n2)cn1 [Example I-351, 3-isopropoxy-N-[[4-[2-[[1-(2-methoxyethyl)pyrazol-4-yl]amino]pyrimidin-4-yl]-2-(trifluoromethyl)phenyl]methyl]azetidine-1-carboxamide]
< 500	10 to 99	CC(C)OC1CN(C(=O)NC2CNCCc3cc(-c4ccnc(Nc5cnn(C)c5)n4)ccc32)C1 (stereo not drawn) [Example I-352, 3-isopropoxy-N-[7-[2-[(1-methylpyrazol-4-yl)amino]pyrimidin-4-yl]-2,3,4,5-tetrahydro-1H-3-benzazepin-1-yl]azetidine-1-carboxamide]
< 500	< 10	CC(C)OC1CN(C(=O)NCc2ccc(-c3ccnc(Nc4cnn(C5CN(C)C5)c4)n3)cc2Cl)C1 [Example I-353, N-[[2-chloro-4-[2-[[1-(1-methylazetidin-3-yl)pyrazol-4-yl]amino]pyrimidin-4-yl]phenyl]methyl]-3-isopropoxy-azetidine-1-carboxamide]

Structure (SMILES)	IC50 [1] [nM]	IC50 (BTK enzyme) [nM]
CC(C)(C)OC1CN(C(=O)NC2CCCCc3cc(-c4cc(Nc5cc6n(n5)CCOC6)ncn4)ccc32)C1 (stereo not drawn) [Example I-332, 3-tert-butoxy-N-[2-[6-(6,7-dihydro-4H-pyrazolo[5,1-c][1,4]oxazin-2-ylamino)pyrimidin-4-yl]-6,7,8,9-tetrahydro-5H-benzo[7]annulen-5-yl]azetidine-1-carboxamide]	< 500	< 10
CC(C)(C)OC1CN(C(=O)NC2CCCCc3cc(-c4ccnc(Nc5cnn([C@H]6CCOC6)c5)n4)ccc32)C1 (stereo partly drawn) [Example I-334, 3-tert-butoxy-N-[2-[2-[[1-[(3S)-tetrahydrofuran-3-yl]pyrazol-4-yl]amino]pyrimidin-4-yl]-6,7,8,9-tetrahydro-5H-benzo[7]annulen-5-yl]azetidine-1-carboxamide]	< 500	< 10
CC(C)(O)Cn1cc(Nc2nccc(-c3ccc4c(c3)CCCCC4NC(=O)N3CC(OC(C)(C)C)C3)n2)cn1 (stereo not drawn) [Example I-337, 3-tert-butoxy-N-[2-[2-[[1-(2-hydroxy-2-methyl-propyl)pyrazol-4-yl]amino]pyrimidin-4-yl]-6,7,8,9-tetrahydro-5H-benzo[7]annulen-5-yl]azetidine-1-carboxamide]	< 500	< 10
CC(C)(C)OC1CN(C(=O)NC2CCCCc3cc(-c4ccnc(Nc5cnn(C6CCNCC6)c5)n4)ccc32)C1 (stereo not drawn) [Example I-343, 3-tert-butoxy-N-[2-[2-[[1-(4-piperidyl)pyrazol-4-yl]amino]pyrimidin-4-yl]-6,7,8,9-tetrahydro-5H-benzo[7]annulen-5-yl]azetidine-1-carboxamide]	< 500	< 10
Cc1c(Nc2nccc(-c3ccc4c(c3)CCCCC4NC(=O)N3CC(OC(C)(C)C)C3)n2)cnn1C (stereo not drawn) [Example I-347, 3-tert-butoxy-N-[2-[2-[(1,5-dimethylpyrazol-4-yl)amino]pyrimidin-4-yl]-6,7,8,9-tetrahydro-5H-benzo[7]annulen-5-yl]azetidine-1-carboxamide]	< 500	< 10
